From patent publication US8546588B2, “Substituted hydroxamic acids and uses thereof” (Millennium Pharmaceuticals, Inc., priority 2010, dated 2013)

Molecular target: T1, purified human HDAC6 (Homo sapiens, UniProt Q9UBN7)
T1 construct: purchased BPS Bioscience 5006
T1 sequence (Q9UBN7 1-1215): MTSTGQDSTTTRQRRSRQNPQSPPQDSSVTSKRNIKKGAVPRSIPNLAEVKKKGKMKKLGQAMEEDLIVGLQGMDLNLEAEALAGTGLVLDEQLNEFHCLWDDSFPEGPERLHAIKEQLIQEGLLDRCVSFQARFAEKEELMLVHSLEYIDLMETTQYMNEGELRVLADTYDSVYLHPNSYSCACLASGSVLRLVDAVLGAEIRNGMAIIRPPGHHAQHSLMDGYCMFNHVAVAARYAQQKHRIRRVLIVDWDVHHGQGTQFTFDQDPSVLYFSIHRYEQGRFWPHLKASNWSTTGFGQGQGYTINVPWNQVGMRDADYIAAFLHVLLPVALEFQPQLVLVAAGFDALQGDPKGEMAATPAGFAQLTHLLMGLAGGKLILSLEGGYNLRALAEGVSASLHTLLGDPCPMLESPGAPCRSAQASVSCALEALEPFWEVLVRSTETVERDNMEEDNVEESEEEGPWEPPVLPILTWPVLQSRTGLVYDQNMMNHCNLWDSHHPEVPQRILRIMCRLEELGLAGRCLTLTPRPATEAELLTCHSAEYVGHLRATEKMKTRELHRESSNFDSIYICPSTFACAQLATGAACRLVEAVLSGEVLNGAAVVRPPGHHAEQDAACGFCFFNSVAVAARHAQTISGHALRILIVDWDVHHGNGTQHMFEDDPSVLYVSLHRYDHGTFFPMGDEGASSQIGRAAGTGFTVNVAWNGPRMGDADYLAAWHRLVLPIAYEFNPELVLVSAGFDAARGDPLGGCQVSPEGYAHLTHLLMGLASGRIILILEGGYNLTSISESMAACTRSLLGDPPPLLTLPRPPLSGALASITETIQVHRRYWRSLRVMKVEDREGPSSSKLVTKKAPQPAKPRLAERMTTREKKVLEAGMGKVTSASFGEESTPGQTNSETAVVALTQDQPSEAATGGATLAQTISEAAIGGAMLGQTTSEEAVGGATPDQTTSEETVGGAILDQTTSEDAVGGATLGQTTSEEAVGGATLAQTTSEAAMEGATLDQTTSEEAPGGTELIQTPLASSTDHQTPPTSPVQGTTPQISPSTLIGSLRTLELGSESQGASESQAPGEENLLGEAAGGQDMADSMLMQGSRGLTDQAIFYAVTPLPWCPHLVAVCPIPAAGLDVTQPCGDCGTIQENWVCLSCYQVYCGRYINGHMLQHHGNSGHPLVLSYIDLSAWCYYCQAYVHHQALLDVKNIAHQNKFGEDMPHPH
Assay: HDAC6 Enzyme Assay
Format: biochemical
Conditions: substrate Ac-Arg-Gly-Lys(Ac)-AMC peptide, 1 hour at 30° C.
Description: To measure the inhibition of HDAC6 activity, purified human HDAC6 (BPS Bioscience; Cat. No. 5006) is incubated with substrate Ac-Arg-Gly-Lys(Ac)-AMC peptide (Bachem Biosciences; Cat. No. I-1925) for 1 hour at 30° C. in the presence of test compounds or vehicle DMSO control. The reaction is stopped with the HDAC inhibitor trichostatin A (Sigma; Cat. No. T8552) and the amount of Arg-Gly-Lys-AMC generated is quantitated by digestion with trypsin (Sigma; Cat. No. T1426) and subsequent measurement of the amount of AMC released using a fluorescent plate reader (Pherastar; BMG Technologies) set at Ex 340 nm and Em 460 nm. Concentration response curves are generated by calculating the fluorescence increase in test compound-treated samples relative to DMSO-treated controls, and enzyme inhibition (IC50) values are determined from those curves.

SMILES | IC50 [nM]
CC(NC(=O)NC(C)(C)C)c1ccc(C(=O)NO)s1 (stereo not drawn) [Compound I-34, 5-(1-{[(tert-butylamino)carbonyl]amino}ethyl)-N-hydroxythiophene-2-carboxamide] | 100 to 500
CC(NC(=O)Nc1cc(C(F)(F)F)ccc1F)c1ccc(C(=O)NO)s1 (stereo not drawn) [Compound I-7, 5-{1-[({[2-fluoro-5-(trifluoromethyl)phenyl]amino}carbonyl)amino]ethyl}-N-hydroxythiophene-2-carboxamide] | < 100
C[C@@H](NC(=O)NC(C)(C)C)c1ccc(C(=O)NO)s1 [Compound I-8, 5-((1R)-1-{[(tert-butylamino)carbonyl]amino}ethyl)-N-hydroxythiophene-2-carboxamide] | 100 to 500
CC(NC(=O)Nc1cccc(C(F)(F)F)c1)c1ccc(C(=O)NO)s1 (stereo not drawn) [Compound I-3, N-hydroxy-5-{1-[({[3-(trifluoromethyl)phenyl]amino}carbonyl)amino]ethyl}thiophene-2-carboxamide] | < 100
COc1ccc(C(=O)N[C@H](C)c2ccc(C(=O)NO)s2)cc1 [Compound I-9, N-hydroxy-5-{(1R)-1-[(4-methoxybenzoyl)amino]ethyl}thiophene-2-carboxamide] | < 100
C[C@@H](NC(=O)c1cc2ccccc2s1)c1ccc(C(=O)NO)s1 [Compound I-16, N-((1R)-1-{5-[(hydroxyamino)carbonyl]-2-thienyl}ethyl)-1-benzothiophene-2-carboxamide] | < 100
CC(NC(=O)NC1CCCCC1)c1ccc(C(=O)NO)s1 (stereo not drawn) [Compound I-24, 5-(1-{[(cyclohexylamino)carbonyl]amino}ethyl)-N-hydroxythiophene-2-carboxamide] | 100 to 500
CC(NC(=O)Nc1ccc(F)cc1)c1ccc(C(=O)NO)s1 (stereo not drawn) [Compound I-2, 5-[1-({[(4-fluorophenyl)amino]carbonyl}amino)ethyl]-N-hydroxythiophene-2-carboxamide] | < 100
CC(NC(=O)Nc1ccc(C(C)(C)C)cc1)c1ccc(C(=O)NO)s1 (stereo not drawn) [Compound I-36, 5-[1-({[(4-tert-butylphenyl)amino]carbonyl}amino)ethyl]-N-hydroxythiophene-2-carboxamide] | < 100
C[C@@H](NC(=O)C(C)(C)C)c1ccc(C(=O)NO)s1 [Compound I-6, 5-{(1R)-1-[(2,2-dimethylpropanoyl)amino]ethyl}-N-hydroxythiophene-2-carboxamide] | > 500
CC(NC(=O)Nc1c(F)cccc1F)c1ccc(C(=O)NO)s1 (stereo not drawn) [Compound I-20, 5-[1-({[(2,6-difluorophenyl)amino]carbonyl}amino)ethyl]-N-hydroxythiophene-2-carboxamide] | 100 to 500

Now from value to compound:

IC50 [nM] | SMILES
< 100 | C[C@H](NC(=O)c1cc2ccccc2s1)c1ncc(C(=O)NO)s1 [Compound I-180, 2-{(1S)-1-[(1-benzothien-2-ylcarbonyl)amino]ethyl}-N-hydroxy-1,3-thiazole-5-carboxamide]
< 100 | Cc1ccccc1CNC(=O)NC(C)c1ccc(C(=O)NO)s1 (stereo not drawn) [Compound I-42, N-hydroxy-5-[1-({[(2-methylbenzyl)amino]carbonyl}amino)ethyl]thiophene-2-carboxamide]
> 500 | C[C@@H](NC(=O)C12CC3CC(CC(C3)C1)C2)c1ncc(C(=O)NO)s1 [Compound I-172, 2-((1R)-1-{[1-adamantylcarbonyl]amino}ethyl)-N-hydroxy-1,3-thiazole-5-carboxamide]
> 500 | C[C@H](NC(=O)C(C)(C)C)c1ncc(C(=O)NO)s1 [Compound I-183, 2-{(1S)-1-[(2,2-dimethylpropanoyl)amino]ethyl}-N-hydroxy-1,3-thiazole-5-carboxamide]
< 100 | C[C@H](NC(=O)c1cc2ccccc2o1)c1ncc(C(=O)NO)s1 [Compound I-159, 2-{(1S)-1-[(1-benzofuran-2-ylcarbonyl)amino]ethyl}-N-hydroxy-1,3-thiazole-5-carboxamide]
< 100 | CC(NC(=O)c1ccc(OCc2ccccc2)cc1)c1ncc(C(=O)NO)s1 (stereo not drawn) [Compound I-49, 2-(1-{[4-(benzyloxy)benzoyl]amino}ethyl)-N-hydroxy-1,3-thiazole-5-carboxamide]
> 500 | C[C@@H](NC(=O)C1(C)CCCCC1)c1ncc(C(=O)NO)s1 [Compound I-162, N-hydroxy-2-((1R)-1-{[(1-methylcyclohexyl)carbonyl]amino}ethyl)-1,3-thiazole-5-carboxamide]
< 100 | CC(NC(=O)c1cc2cc(Cl)ccc2o1)c1ncc(C(=O)NO)s1 (stereo not drawn) [Compound I-50, 2-(1-{[(5-chloro-1-benzofuran-2-yl)carbonyl]amino}ethyl)-N-hydroxy-1,3-thiazole-5-carboxamide]
> 500 | C[C@@H](NC(=O)c1cc2ccccc2o1)c1cc(C(=O)NO)on1 [Compound I-181, (R)-3-(1-(benzofuran-2-carboxamido)ethyl)-N-hydroxyisoxazole-5-carboxamide]
> 500 | C[C@@H](NC(=O)C12CC3CC(CC(C3)C1)C2)c1cc(C(=O)NO)on1 [Compound I-170, 3-{(1R)-1-[(1-adamantylcarbonyl)amino]ethyl}-N-hydroxyisoxazole-5-carboxamide]
